From patent publication US20240180910A1, “METHOD FOR TREATING CANCER WITH A CHEMOTHERAPEUTIC MODIFIER” (Elion Oncology, Inc., priority 2022, published 2024)
Like-named read-outs stand apart in the source and are kept apart here.

Columns and labels:
clinical = details: human, in vivo
Experimental: (§1) To evaluate the safety, dose-limiting toxicities (DLTs), and maximum tolerated dose (MTD) of capecitabine administered to patients with advanced, refractory gastrointestinal tract (GI) tumors using a 7 days on +7 days off capecitabine regimen ˜24 hours after a single, fixed, oral 40 mg dose of eniluracil.
(§2) Eniluracil (40-50 mg) is orally administrated at Day 1. After 12-24 hours, capecitabine is orally administered. Capecitabine is given twice a day at 140-600 mg/day for a total of 7 days. Then the patient is rested for 7 days before receiving the next cycle which follows the above-described procedures. The cycles are repeated until either the patient has a complete response or when the disease progresses in the patient. A complete response means that the tumor is no longer present. Progression of the cancer means that the tumor starts enlarging or the tumor is no longer stable.
(§3) Primary Endpoints: • DLTs and incidences of AEs according to NCI CTCAE Version 5.0. • Concentrations of capecitabine, 5 FU, FBAL, 5′ DFCR, and 5′ DFUR in plasma, PK parameters will be estimated from concentration time data using noncompartmental methods, as data permit. • Concentrations of eniluracil in plasma; PK parameters will be estimated from concentration-time data using noncompartmental methods, as data permit. • 2.
(§4) Briefly, capecitabine was administered to patients with advanced, refractory gastrointestinal tract (GI) tumors using a 7 days on +7 days off capecitabine regimen ˜24 hours after a single, fixed, oral 40 mg dose of eniluracil.

[1] = cited from earlier work; for t1/2: arithmetic mean
[2] = cited from earlier work
[3] = colon cancer, adjuvant, XELODA 1250 mg/m^2/bid (n = 995), i.v. 5-FU/LV Mayo Clinic regimen (n = 974), cited from earlier work
[4] = system: patient-derived colon cancer xenograft CXF 280; details: for Minimum T/C: days 1-14, 22-35, Day 35
Experimental: This study was to assess the antitumor efficacy of eniluracil in combination with different doses of capecitabine in the patient-derived colon xenograft CXF 280 subcutaneously implanted in immunodeficient athymic nude mice.
The study consisted of an in vivo efficacy experiment with the patient-derived colon cancer xenograft CXF 280 implanted subcutaneously in athymic nude mice.
This experiment consisted of six groups with six animals each. Animals were dosed in monotherapy with capecitabine at 300 or at 30 mg/kg/day daily for 2 weeks with a one-week dosing break followed by another 2 weeks of daily dosing (14 days ON and 7 days OFF). In combination therapies, capecitabine was dosed at 30, 15 or 7.5 mg/kg/day on days 1-7, 15-21 and 29-35 (7 days ON and 7 days OFF) as well as with eniluracil at 10 mg/kg/day on days 1, 3, 5, 15, 17, 19, 29, 31, and 33.
Combination therapies with capecitabine and eniluracil scheduled for the same dosing day were administered with a six-hour dosing delay after dosing with eniluracil in order to ensure that all the eniluracil is eliminated in the mouse prior to capecitabine administration.
All therapies were administered via oral gavage (p.o.) over the course of 35 days followed by an observation period of one week until day 42 of the experiment.
Relative tumor volumes (RTVs) for Day x were calculated by dividing the absolute individual tumor volume on Day x (Tx) by the absolute individual tumor volume of the same tumor on the day of randomization (Tr) multiplied by 100%.
Tumor growth inhibition was determined by comparison of the median RTV of the test groups (T) with the vehicle control group (C) and was expressed as minimum T/C value in percent. The minimum T/C value recorded for a test group during an experiment represents the maximum antitumor efficacy for the respective treatment.

[5] = human, in vivo
Experimental: as §1, §2, §3, §4

[6] = doses up to 50 g per day administered for seven days; cited from earlier work
[7] = Clinical trial: plasma pharmacokinetics, capecitabine 7 days on + 7 days off ~24 hours after single oral 40 mg eniluracil; details: day 8
Experimental: as §1, §2, §3, §4

[8] = plasma, Day 14, after oral capecitabine 1255 mg/m^2, 8 cancer patients
[9] = plasma, Day 14, after oral capecitabine 1255 mg/m^2, 8 cancer patients, geometric mean
[10] = plasma, Day 14, after oral capecitabine 1255 mg/m^2, 8 cancer patients, median
[11] = 2005 EMA for Xeloda, capecitabine alone 1250 mg/m^2

## O=c1[nH]cc(F)c(=O)[nH]1 [5-FU, 5-Fluorouracil]
clinical; 5-FU Day 2 Mean T1/2, capecitabine daily dose 75 (with Eniluracil)
  half-life: 3.6 h
clinical; 5-FU Day 2 Mean T1/2, capecitabine daily dose 150 (with Eniluracil)
  half-life: 3.35 h
clinical; 5-FU Day 2 Mean T1/2, capecitabine daily dose 300 (with Eniluracil)
  half-life: 3.54 h
clinical; 5-FU Day 2 Mean T1/2, capecitabine daily dose 450 (with Eniluracil)
  half-life: 5.71 h
clinical; half-life (T1/2) of 5-FU at day 2, capecitabine in combination with eniluracil pretreatment, highest over doses
  half-life: ≤ 5.71 h
[1]; Capecitabine alone
  5-FU Mean T1/2: 0.76 h
[1]; after capecitabine oral dosing at 1255 mg/m^2
  exposure (AUC): approximately 1630 h*ng/mL
[1]; [8]
  t1/2: 0.76 h
[1]; [9]
  AUC0-t: 1620 ng·h/mL
  AUC0-∞: 1630 ng·h/mL
  Cmax: 709 ng/mL
[1]; [10]
  tmax: 2.00 h
[2]; [11]
  AUC0-∞: 2030 ng·h/mL
  peak plasma concentrations (Cmax): 950 ng/mL

## C[C@H]1O[C@@H](n2cc(F)c(N)nc2=O)[C@H](O)[C@@H]1O [5′-DFCR, 5′-deoxy-5-fluorocytidine]
[1]; [8]
  t1/2: 1.31 h
[1]; [9]
  AUC0-t: 3970 ng·h/mL
  AUC0-∞: 5210 ng·h/mL
  Cmax: 1710 ng/mL
[1]; [10]
  tmax: 2.00 h
[2]; [11]
  AUC0-∞: 7240 ng·h/mL
  peak plasma concentrations (Cmax): 3050 ng/mL
  time to peak plasma concentrations (tmax): 2.00 h

## C[C@H]1O[C@@H](n2cc(F)c(=O)[nH]c2=O)[C@H](O)[C@@H]1O [5′DFUR, doxifluridine]
[1]; [8]
  t1/2: 0.66 h
[1]; [9]
  AUC0-t: 19900 ng·h/mL
  AUC0-∞: 21700 ng·h/mL
  Cmax: 9370 ng/mL
[2]; [11]
  AUC0-∞: 24600 ng·h/mL
  peak plasma concentrations (Cmax): 12100 ng/mL
  time to peak plasma concentrations (tmax): 2.00 h

## CCCCCOC(=O)Nc1nc(=O)n([C@@H]2O[C@H](C)[C@@H](O)[C@H]2O)cc1F [Capecitabine, capecitabine]
[3]
  Abdominal pain upper, Grade 3/4: <1%
  Abdominal pain upper, Total: 6%
  Abdominal pain, Grade 3/4: 2%
  Abdominal pain, Total: 10%
  Alopecia, Total: 6%
  Anorexia, Grade 3/4: <1%
  Anorexia, Total: 9%
  Asthenia, Grade 3/4: <1%
  Asthenia, Total: 9%
  Conjunctivitis, Grade 3/4: <1%
  Conjunctivitis, Total: 5%
  Constipation, Total: 6%
  Diarrhea, Grade 3/4: 11%
  Dizziness, Grade 3/4: <1%
  Dizziness, Total: 5%
  Dysgeusia, Total: 6%
  Dyspepsia, Grade 3/4: <1%
  Dyspepsia, Total: 5%
  Erythema, Grade 3/4: 1%
  Erythema, Total: 6%
  Fatigue, Grade 3/4: <1%
  Fatigue, Total: 15%
  Hand-foot Syndrome, Grade 3/4: 17%
  Lethargy, Grade 3/4: <1%
  Lethargy, Total: 10%
  Nausea, Grade 3/4: 2%
  Nausea, Total: 33%
  Neutropenia, Grade 3/4: <1%
  Neutropenia, Total: 2%
  Pyrexia, Grade 3/4: <1%
  Pyrexia, Total: 4%
  Rash, Total: 6%
  Stomatitis, Grade 3/4: 2%
  Stomatitis, Total: 22%
  Vomiting, Grade 3/4: 2%
  Vomiting, Total: 14%
[3]; listed as XELODA
  Diarrhea, Total: 46%
  Hand-foot Syndrome, Total: 60%
[3]; listed as Xeloda
  Diarrhea, Total: about 46%
  Hand-foot Syndrome, Total: about 60%
[1]; [8]
  t1/2: 0.85 h
[1]; [9]
  AUC0-t: 7290 ng·h/mL
  AUC0-∞: 7400 ng·h/mL
  Cmax: 3990 ng/mL
[1]; [10]
  tmax: 1.50 h
[2]; [11]
  AUC0-∞: 7750 ng·h/mL
  peak plasma concentrations (Cmax): 4670 ng/mL
  time to peak plasma concentrations (tmax): 1.50 h
[4]; Group 2: capecitabine 300 mg/kg/day p.o.
  Minimum T/C: 4.5%
[4]; Group 3: capecitabine 30 mg/kg/day p.o.
  Minimum T/C: 34.9%
[4]; monotherapy with capecitabine at 300 mg/kg/day in mice
  antitumor activity (in words): high antitumor activity

## C#Cc1c[nH]c(=O)[nH]c1=O [Eniluracil, 5-Ethynyluracil]
[5]
  metabolism of capecitabine into FBAL (AUC and Cmax of FBAL): completely blocked
[6]
  safety: safe

## NCC(F)C(=O)O (stereo not drawn) [FBAL, α-fluoro-β-alanine]
[1]; human, in vivo, po, 1255 mg/m2
  AUC0-t: 30000 ng·h/mL
  AUC0-∞: 35200 ng·h/mL
  Cmax: 5320 ng/mL
  exposure (AUC): 30-35,000 h*ng/mL
  tmax: 3.34 h
[1]; human, in vivo
  Tmax of FBAL: 3.24 h
[1]; [8]
  t1/2: 3.23 h
[2]; in vivo, 1250 mg/m2
  AUC0-∞: 36300 ng·h/mL
  peak plasma concentrations (Cmax): 5460 ng/mL
  time to peak plasma concentrations (tmax): 3.34 h
[7]
  effects of eniluracil on FBAL metabolism: no longer apparent

## O=C1NCC(F)C(=O)N1 (centres unmarked) [FUH2]
[1]; [8]
  t1/2: 1.14 h
[1]; [9]
  AUC0-t: 1200 ng·h/mL
  AUC0-∞: 2150 ng·h/mL
  Cmax: 442 ng/mL
[1]; [10]
  tmax: 2.28 h
